Assay results taken from patent publication US9783537B2, “3-(4-ethylnylphenyl) pyridopyrimidinone compounds and process for preparation thereof useful as potential anticancer agents” (Council of Scientific & Industrial Research, priority 2013, dated 2017).
Where two headings read alike, the source gives them in different places.

Columns and labels:
[1] = tested on: SW-620; assay: SRB 48 h growth assay, Colon SW-620; type: cell-based, human; conditions: SW-620, Colon
[2] = tested on: LOX IMVI; assay: SRB 48 h growth assay, Melanoma LOX IMVI; type: cell-based, human
[3] = tested on: MDA-MB-435; assay: SRB 48 h growth assay, Melanoma MDA-MB-435; type: cell-based, human; conditions: MDA-MB-435, Melanoma
[4] = tested on: RPMI-8226; assay: SRB 48 h growth assay, Leukemia RPMI-8226; type: cell-based, human; conditions: RPMI-8226, Leukemia
[5] = tested on: SK-MEL-5; assay: SRB 48 h growth assay, Melanoma SK-MEL-5; type: cell-based, human; conditions: SK-MEL-5, Melanoma
[6] = tested on: HS578T; assay: SRB 48 h growth assay, Breast HS578T; type: cell-based, human
[7] = tested on: SNB-75; assay: SRB 48 h growth assay, CNS SNB-75; type: cell-based, human; conditions: SNB-75, CNS
[8] = tested on: CCRF-CEM; assay: SRB 48 h growth assay, Leukemia CCRF-CEM; type: cell-based, human
[9] = tested on: two prostate cancer cell line (PC-3, DU-145); assay: in vitro anticancer activity, prostate panel; type: cell-based; conditions: Homo sapiens; two prostate cancer cell lines, exposure at least 48 h; read-out: GI50, range over panel
[10] = tested on: KM12; assay: SRB 48 h growth assay, Colon KM12; type: cell-based, human
[11] = tested on: MCF7; assay: SRB 48 h growth assay, Breast MCF7; type: cell-based, human
[12] = tested on: HL-60(TB); assay: SRB 48 h growth assay, Leukemia HL-60(TB); type: cell-based, human
[13] = tested on: OVCAR-8; assay: SRB 48 h growth assay, Ovarian OVCAR-8; type: cell-based, human; conditions: OVCAR-8, Ovarian
[14] = tested on: BT-549; assay: SRB 48 h growth assay, Breast BT-549; type: cell-based, human; conditions: BT-549, Breast
[15] = tested on: NCI-H23; assay: SRB 48 h growth assay, Non-small Cell Lung NCI-H23; type: cell-based, human
[16] = tested on: UACC-62; assay: SRB 48 h growth assay, Melanoma UACC-62; type: cell-based, human; conditions: UACC-62, Melanoma
[17] = tested on: six leukemia cancer cell lines (CCRF-CEM, HL-60, K-562, MOLT-4, SR and RPMI-8226); assay: in vitro anticancer activity, leukemia panel; type: cell-based; conditions: Homo sapiens, exposure at least 48 h, read-out: GI50, range over panel
[18] = tested on: SNB-19; assay: SRB 48 h growth assay, CNS SNB-19; type: cell-based, human; conditions: SNB-19, CNS
[19] = in vitro anticancer activity, melanoma panel; type: cell-based; conditions: Homo sapiens; nine melanoma cell lines, exposure at least 48 h; read-out: GI50, range over panel
[20] = tested on: TK-10; assay: SRB 48 h growth assay, Renal TK-10; type: cell-based, human; conditions: TK-10, Renal
[21] = tested on: MDA-MB-231/ATCC; assay: SRB 48 h growth assay, Breast MDA-MB-231/ATCC; type: cell-based, human
[22] = tested on: M14; assay: SRB 48 h growth assay, Melanoma M14; type: cell-based, human
[23] = in vitro anticancer activity, non-small cell lung panel; type: cell-based; conditions: Homo sapiens; nine non-small cell lung cancer cell lines, exposure at least 48 h; read-out: GI50, range over panel
[24] = tested on: PC-3; assay: SRB 48 h growth assay, Prostate PC-3; type: cell-based, human; conditions: PC-3, Prostate
[25] = tested on: NCI-H522; assay: SRB 48 h growth assay, Non-small Cell Lung NCI-H522; type: cell-based, human
[26] = tested on: HCT-116; assay: SRB 48 h growth assay, Colon HCT-116; type: cell-based, human; conditions: HCT-116, Colon
[27] = tested on: RXF393; assay: SRB 48 h growth assay, Renal RXF393; type: cell-based, human
[28] = tested on: A549/ATCC; assay: SRB 48 h growth assay, Non-small Cell Lung A549/ATCC; type: cell-based, human
[29] = Homo sapiens, read-out: Growth Inhibition GI50
[30] = Homo sapiens, read-out: Log10 GI50 (converted)
[31] = Homo sapiens, read-out: Log10 LC50 (converted)

In the case of `C#Cc1ccc(-n2c(/C=C/c3ccc(O)cc3)nc3ncccc3c2=O)cc1` [4b, (E)-3-(4-Ethynylphenyl)-2-(4-hydroxystyryl)pyrido[2,3-d]pyrimidin-4(3H)-one], the GI50 [1, 29] was 3.55 µM, the GI50 [1, 30] was 3.55 µM and the CC50 [1, 31] was > 100 µM. For the same compound, the “Log10 TGI50” value [1] was >−4.00, the “Log10 TGI50” value [2] was >−4.00 and the GI50 [2, 29] was 5.35 µM. The GI50 [2, 30] was 5.37 µM, the CC50 [2, 31] was > 100 µM and the GI50 [3, 29] was 1.6 µM. The GI50 [3, 30] was 1.58 µM, the CC50 [3, 31] was > 100 µM and the “Log10 TGI50” value [3] was −5.39. The GI50 [4, 29] was 3.41 µM, the GI50 [4, 30] was 3.39 µM and the CC50 [4, 31] was > 100 µM. The “Log10 TGI50” value [4] was >−4.00, the GI50 [5, 29] was 2.24 µM and the GI50 [5, 30] was 2.24 µM. For the same compound, the CC50 [5, 31] was > 100 µM, the “Log10 TGI50” value [5] was −5.13 and the “Log10 TGI50” value [6] was −4.52. For the same compound, the GI50 ([6]; Homo sapiens, Hs-578T, read-out: Growth Inhibition GI50) was 3.24 µM, the GI50 ([6]; Homo sapiens, Hs-578T, read-out: Log10 GI50 (converted)) was 3.24 µM and the CC50 ([6]; Homo sapiens, Hs-578T, read-out: Log10 LC50 (converted)) was > 100 µM. The GI50 [7, 29] was 0.94 µM, the GI50 [7, 30] was 0.955 µM and the CC50 [7, 31] was > 100 µM. The “Log10 TGI50” value [7] was −4.49, the “Log10 TGI50” value [8] was >−4.00 and the CC50 ([8]; Homo sapiens, CCKF-CEM, read-out: Log10 LC50 (converted)) was > 100 µM. For the same compound, the GI50 [8, 29] was 3.3 µM, the GI50 [8, 30] was 3.31 µM and the GI50 [9] was 3.96 to 5.36 µM. The “Log10 TGI50” value [10] was −4.22, the GI50 [10, 29] was 3.81 µM and the GI50 [10, 30] was 3.8 µM. For the same compound, the CC50 [10, 31] was > 100 µM, the “Log10 TGI50” value [11] was >−4.00 and the GI50 [11, 29] was 3.04 µM. For the same compound, the GI50 [11, 30] was 3.02 µM, the CC50 [11, 31] was > 100 µM and the “Log10 TGI50” value [12] was −4.52. The GI50 [12, 29] was 3.2 µM, the GI50 [12, 30] was 3.24 µM and the CC50 [12, 31] was > 100 µM. For the same compound, the GI50 [13, 29] was 4.39 µM, the GI50 [13, 30] was 4.37 µM and the CC50 [13, 31] was > 100 µM. The “Log10 TGI50” value [13] was −4.33, the “Log10 TGI50” value [14] was −4.06 and the GI50 [14, 29] was 7.51 µM. For the same compound, the GI50 [14, 30] was 7.59 µM, the CC50 [14, 31] was > 100 µM and the “Log10 TGI50” value [15] was >−4.00. For the same compound, the GI50 [15, 29] was 5.52 µM, the GI50 [15, 30] was 5.5 µM and the LC50 [15, 31] was > 100 µM. The GI50 [16, 29] was 4.01 µM, the GI50 [16, 30] was 3.98 µM and the CC50 [16, 31] was > 100 µM. The “Log10 TGI50” value [16] was >−4.00, the GI50 [17] was 3.58 to 5.55 µM and the GI50 [18, 29] was 6.26 µM. For the same compound, the GI50 [18, 30] was 6.31 µM, the CC50 [18, 31] was > 100 µM and the “Log10 TGI50” value [18] was >−4.00. It also gave a GI50 [19] of 1.78 to 34.6 µM, a GI50 [20, 29] of 8.78 µM and a GI50 [20, 30] of 8.71 µM. The CC50 [20, 31] was > 100 µM, the “Log10 TGI50” value [20] was −4.16 and the “Log10 TGI50” value [21] was >−4.00. For the same compound, the GI50 [21, 29] was 11.4 µM, the GI50 [21, 30] was 11.5 µM and the CC50 [21, 31] was > 100 µM. The “Log10 TGI50” value [22] was −5.09, the GI50 [22, 29] was 2.7 µM and the GI50 [22, 30] was 2.69 µM. The CC50 [22, 31] was > 100 µM, the GI50 [23] was 2.31 to 17.3 µM and the GI50 [24, 29] was 3.87 µM. For the same compound, the GI50 [24, 30] was 3.89 µM, the CC50 [24, 31] was > 100 µM and the “Log10 TGI50” value [24] was −4.32. The “Log10 TGI50” value [25] was −5.22, the GI50 [25, 29] was 2 µM and the GI50 [25, 30] was 2 µM. For the same compound, the CC50 [25, 31] was > 100 µM, the “Log10 TGI50” value [26] was >−4.00 and the GI50 [26, 29] was 5.07 µM. The GI50 [26, 30] was 5.01 µM, the CC50 [26, 31] was > 100 µM and the “Log10 TGI50” value [27] was −5.36. For the same compound, the GI50 ([27]; Homo sapiens, RXF 393, read-out: Growth Inhibition GI50) was 1.48 µM, the GI50 ([27]; Homo sapiens, RXF 393, read-out: Log10 GI50 (converted)) was 1.48 µM and the CC50 ([27]; Homo sapiens, RXF 393, read-out: Log10 LC50 (converted)) was > 72.4 µM. The “Log10 TGI50” value [28] was >−4.00, the GI50 [28, 29] was 4.74 µM and the GI50 [28, 30] was 4.79 µM. The CC50 [28, 31] was > 100 µM.
